Key:
[1] = test system: marrow HPC of irradiated mice; experiment: Colony assays: total CFC (CFU-GM, BFU-E, CFU-GEMM) per femur after irradiation; assay type: in vivo, C57B1/6 mice
Procedure: After 30 days, analysis of total CFC(CFU-GM, BFU-E and CFU-GEMM) was performed in methylcellulose culture. Referring now to FIG. 2B, data are Mean±SEM from N=5 mice per group, each assayed individually.
Irradiated mice were identified by ear punches and treated with either a single subcutaneous dose of dmPGE2 (40 μg/mouse) or vehicle control at 6 hours post-irradiation (N=20 mice per group, evenly split male/female); 6 mg/kg meloxicam dosed once daily on days 2 through 5 post-irradiation or vehicle control (N=20 or 40 mice per group, respectively, evenly split male/female); or a single subcutaneous dose of CoCl2 (60 mg/kg) at 6 hours post-irradiation (N=20 mice per group, evenly split male/female). One mouse per treatment group was housed in each individual cage.
After 35 days, remaining irradiated mice were sacrificed, bone marrow acquired from femurs, and total CFC including CFU-GM, BFU-E and CFU-GEMM were enumerated in 1% methylcellulose/IMDM containing 30% HI-FBS, 1 U/ml rhEPO, 10 ng/ml rhGM-CSF and 50 ng/ml rmSCF as described (Broxmeyer et al., 2007; Fukuda et al., 2007). All cultures were established in triplicate from individual animals, incubated at 37° C., 5% CO2, 5% O2 in air for 7 days and colonies quantified by microscopy.
Referring now to FIG. 2B, after 30 days, analysis of total CFC(CFU-GM, BFU-E and CFU-GEMM) was performed in methylcellulose culture. Data are Mean±SEM from N=5 mice per group, each assayed individually.

[2] = test system: irradiated mice (796 cGys, LD50); experiment: 30-day survival after irradiation, murine HS-ARS model; assay type: in vivo, C57B1/6 mice; settings: 30 days
Procedure: Male and female C57B1/6 mice were purchased from Jackson Laboratories at 10-12 weeks of age. Mice were housed in microisolator cages (5 mice per cage) with sterilized direct contact bedding (Alpha Dri). Animal holding rooms were maintained at 21±3° C. with 30 to 80% relative humidity, with at least 10 air changes per hour of 100% fresh air, and a 12-hour light/dark cycle. Mice were fed ad libitum with commercial rodent chow (Harlan 2018SXC) in cage hoppers and acidified (pH 2.0-3.0) water in sipper tube bottles. The Institutional Animal Care and Use Committee of IUSM approved all protocols.
Mice were placed in single chambers of a plexiglass irradiation pie (Braintree), with 15 mice per pie, alternating groups of males and females within the same pie. The mice in each group of mice, irradiated together in the same pie, were divided equally among all treatment groups to ensure that each group received the same irradiation exposure conditions. […]
Cohorts of 20-40 mice were irradiated with an LD50 dose from a ^137Cs source. […] Animals were monitored for morbidity and mortality twice/daily for 30 days and euthanized when moribund. Referring now to FIG. 2A, survival curves were analyzed with a log-rank test. […]
Moribund mice were scored for signs of early euthanasia based on three parameters: the severity of hunched posture, squinted/closed eyes, and decreased activity. Each criterion was scored on a scale of 1 to 3, with 3 being the most severe. Moribund mice with a score of 8 or 9 were euthanized and the date of death was recorded.
Irradiated mice with therapeutic exogenously provided amounts of PGE2 mitigated the damage to hematopoietic cells observed post-irradiation with dmPGE2 treatment, using a murine HS-ARS model developed by Dr. Orschell at IUSM. […] Animals were monitored for morbidity and mortality twice/daily for 30 days and euthanized when moribund. Survival curves were analyzed with a log-rank test.

HSC = settings: WO 2010/054271, cited from earlier work
bone marrow HPC = experiment: NSAID effect on bone marrow progenitor cell expansion in non-irradiated mice (CFU-GM); assay type: in vivo; settings: NSAID twice daily for 4 days, assayed on day 5
Procedure: Mice were administered dual (Indomethacin, meloxicam), COX2 selective (Valdecoxib) or COX1 selective (SC560) inhibitors twice daily for 4 days. Referring now to FIG. 1, on day 5, mice were sacrificed, bone marrow from one femur isolated, total nucleated cells counted on a Hemavet 950FS and CFU-GM determined. Data are Mean±SEM for N=5 mice per group, each assayed individually.

## [Cl][Co][Cl] [CoCl2, cobalt chloride]
[1]; single subcutaneous dose 60 mg/kg at 6 hours post-irradiation, day 35
  CFC in bone marrow: significantly increased CFC in bone marrow
[2]; single subcutaneous dose 60 mg/kg at 6 hours post-irradiation, P=0.0011
  percent survival: 95%

## CCCCC[C@H](O)/C=C/[C@H]1[C@H](O)CC(=O)[C@@H]1C/C=C\CCCC(=O)O [PGE2, prostaglandin E2]
HSC
  homing/engraftment in bone marrow transplants: increased homing/engraftment
HSC; through up-regulation of Survivin
  apoptosis of HSC: decreased apoptosis

## CCCCC(C)(C)[C@H](O)/C=C/[C@H]1[C@H](O)CC(=O)[C@@H]1C/C=C\CCCC(=O)O [dmPGE2, 16,16 dimethyl prostaglandin E2]
[1]; single subcutaneous dose 40 μg/mouse at 6 hours post-irradiation, 796 cGys, day 35
  marrow HPC (total CFC per femur) versus control irradiated mice: significantly higher than control irradiated mice
[2]; single subcutaneous dose 40 μg/mouse at 6 hours post-irradiation, 796 cGys, control 50% survival, P=0.0011
  percent survival: 95%

## Cc1cnc(NC(=O)C2=C(O)c3ccccc3S(=O)(=O)N2C)s1 [meloxicam, 4-hydroxy-2-methyl-N-(5-methyl-2-thiazolyl)-2H-1,2-benzothiazine-3-carboxamide-1,1-dioxide]
[1]; 6 mg/kg once daily on days 2 through 5 post-irradiation, femurs 35 days post-irradiation
  bone marrow CFC content versus control: significantly increased bone marrow CFC content compared to control
[2]; 6 mg/kg once daily on days 2 through 5 post-irradiation, control 50% survival, P=0.034
  percent survival: 80%
Bone marrow HPC
  HPC expansion in bone marrow: increase HPCs within the bone marrow
